Results taken from ChEMBL document CHEMBL1137532, “Mutation and inhibition studies of mevalonate 5-diphosphate decarboxylase” (Bioorg Med Chem Lett, 2007).

Columns and labels:
[1] = Inhibition of rat MDD
Rattus norvegicus = species: Rattus norvegicus; assay: Activity of wild type MDD in rat liver
[2] = substrate: Nc1ncnc2c1ncn2[C@@H]1O[C@H](COP(=O)(O)OP(=O)(O)OP(=O)(O)O)[C@@H](O)[C@H]1O; assay: (§1) Activity of MDD K27A mutant; details: Rattus norvegicus
[3] = substrate: C[C@@](O)(CCOP(=O)(O)OP(=O)(O)O)CC(=O)O; assay: as §1; details: Rattus norvegicus
[4] = substrate: Nc1ncnc2c1ncn2[C@@H]1O[C@H](COP(=O)(O)OP(=O)(O)OP(=O)(O)O)[C@@H](O)[C@H]1O; assay: (§2) Activity of MDD R154A mutant; details: Rattus norvegicus
[5] = substrate: C[C@@](O)(CCOP(=O)(O)OP(=O)(O)O)CC(=O)O; assay: as §2; details: Rattus norvegicus

CC(O)(CCOP(=O)(O)OP(=O)(O)O)C(F)(F)C(=O)O (stereo unspecified)
IC50 [1]: 7.5 µM

CCC(C)(O)CCOP(=O)(O)OP(=O)(O)O (stereo unspecified)
IC50 [1]: 80 µM

CC(O)(CCOP(=O)(O)OP(=O)(O)O)Cc1ccccc1 (stereo unspecified)
IC50 [1]: 140 µM

CC(C)(O)CCOP(=O)(O)OP(=O)(O)O
IC50 [1]: 60 µM

Nc1ncnc2c1ncn2[C@@H]1O[C@H](COP(=O)(O)OP(=O)(O)OP(=O)(O)O)[C@@H](O)[C@H]1O
Km (Rattus norvegicus): 530 µM

CC(O)(CCF)CCOP(=O)(O)OP(=O)(O)O (stereo unspecified)
IC50 [1]: 50 µM

C[C@@](O)(CCOP(=O)(O)OP(=O)(O)O)CC(=O)O
Km (Rattus norvegicus): 36 µM
Vmax (Rattus norvegicus): 6.6 µmol/min/mg

CCC(O)(CCOP(=O)(O)OP(=O)(O)O)C(F)C(=O)O (stereo unspecified)
IC50 [1]: 20 µM

CCCC(C)(O)CCOP(=O)(O)OP(=O)(O)O (stereo unspecified)
IC50 [1]: 120 µM

B1: Diphosphomevalonate decarboxylase (Rattus norvegicus), Q62967 K27A (protein)
chain: MASEKPQDLMVTCTAPVNIAVIKYWGARDEALILPINPSLSVTLHQDQLKTTTTAAISKDFTEDRIWLNGREEDVGQPRLQACLREIRRLARKRRSTGDGDALPLSLGYKVHVASVNNFPTAAGLASSAAGYACLAYTLARVYGVEGDLSEVARRGSGSACRSLYGGFVEWQMGEQADGKDSIARQIAPEWHWPQLRVLILVVSAEKKPTGSTVGMQTSVATSTLLKFRAESIVPERMKEMTRCIQEQDFQAFAQLTMKDSNQFHATCLDTFPPISYLNDTSRRIIQLVHRFNAHHGQTKVAYTFDAGPNAVIFTLEDTVAEFVAAVRHSFPPAANGDKFLKGLQVAPVLLSDELKTSLATEPSPGGVQYIIATQVGPGPQVLDDPHHHLLGPDGLPQRDL
Km [2]: 1870 µM
Km [3]: 750 µM
Vmax [3]: 0.14 µmol/min/mg

B2: Diphosphomevalonate decarboxylase (Rattus norvegicus), Q62967 R154A (protein)
chain: MASEKPQDLMVTCTAPVNIAVIKYWGKRDEALILPINPSLSVTLHQDQLKTTTTAAISKDFTEDRIWLNGREEDVGQPRLQACLREIRRLARKRRSTGDGDALPLSLGYKVHVASVNNFPTAAGLASSAAGYACLAYTLARVYGVEGDLSEVAARGSGSACRSLYGGFVEWQMGEQADGKDSIARQIAPEWHWPQLRVLILVVSAEKKPTGSTVGMQTSVATSTLLKFRAESIVPERMKEMTRCIQEQDFQAFAQLTMKDSNQFHATCLDTFPPISYLNDTSRRIIQLVHRFNAHHGQTKVAYTFDAGPNAVIFTLEDTVAEFVAAVRHSFPPAANGDKFLKGLQVAPVLLSDELKTSLATEPSPGGVQYIIATQVGPGPQVLDDPHHHLLGPDGLPQRDL
Km [4]: 1400 µM
Km [5]: 920 µM
Vmax [5]: 0.34 µmol/min/mg
